The text below walks through data of patent US20240327444A1, “Method for Purifying Nucleotides, Device for Purifying Nucleotides, Hy-Drophobic Reagent, and Hydrophobic Substrate” (Japan Science and Technology Agency, priority 2021, published 2024).

Assay type in all cases: cell-based
Data set [1] concerns HeLa cells. Description: Translation activity of NanoLuc luciferase mRNA (capped with cap analog, reverse-phase HPLC purified) lipofected into HeLa cells (FIG. 30, 31). The method, then:
In (A) of the figure, a cap analog compound was added, a NanoLuc luciferase mRNA (650-base-long) was transcriptionally synthesized using T7 RNA polymerase, and the transcription reaction was analyzed by denaturing polyacrylamide gel (5%, containing 7.5 M urea as a denaturant) electrophoresis. The composition of the transcription reaction liquid and the reaction conditions are shown below.
15 ng/μL dsDNA transcription template (PCR product of 676-bp containing T7 promoter sequence 5′TAATACGACTCACTATAG3′-(SEQ ID NO: 1) and containing a NanoLuc luciferase gene coding region derived from a pNL1.1 TK vector (Promega)), 2 mM ATP, 2 mM UTP, 2 mM CTP, 2 mM GTP or [0.5 mM GTP+2 mM Cap Analog], 40 mM Tris-HCl (pH 8.0), 8 mM MgCl2, 2 mM spermidine, 5 mM DTT, 10 units/μL T7 RNA polymerase (Takara Bio Inc.).
FIG. 30 is a diagram showing the evaluation of the translation activity of a NanoLuc luciferase mRNA after reverse-phase HPLC isolation and purification. The activity was indicated with the expression level of the mRNA prepared without addition of the cap analog being 1.
FIG. 31 is a diagram showing the evaluation of the translation activity of a NanoLuc luciferase mRNA after reverse-phase HPLC isolation and purification. The activity was indicated with the expression level of the mRNA prepared without addition of the cap analog being 1. […]

In data set [2] the test system is JAWS II cells. Description: Translation activity of Luc2 mRNA transcriptionally synthesized using a cap analog, JAWS II cells (FIG. 38). The settings on record: lipofection, after 24 hours, versus Tri_1 (CleanCap Reagent AG structure). The protocol:
(§1) An RNA was transcriptionally synthesized with T7 RNA polymerase using a double-stranded DNA as a template. The double-stranded DNA of the template was obtained by amplifying pSP73-a-luc2 (described at the end of the experimental section) encoding the Luc2 gene by a PCR reaction using KOD-Plus-Neo (TOYOBO), Fw primer (cgcgttggccgattcatt: SEQ ID NO: 3), Rev primer ([…]: SEQ ID NO: 4) (1.0 ng/μL DNA vector, 1×KOD-Plus-Neo buffer, 0.2 mM dNTPs, 0.3 μM primers, 1.5 mM MgSO4, 0.02 units/μL polymerase). […]
(§2) Deprotection by photoirradiation: The RNA solution was added to a transparent 96-multiwell plate, and irradiated with 365 nm light at a quantity of light of 4 mW/cm^2 for 15 minutes using a MAX-305 light source device (Asahi Spectra Co., Ltd.). […]
FIG. 38 is a diagram showing the result of evaluation of translation activity in JAWS II cells of an RNA transcriptionally synthesized using a cap analog. […] After 24 hours, the cells were lysed and the luminescence of firefly luciferase was measured. […]
Evaluation of intracellular translation activity (JAWS II cells): JAWS II cells (ATCC) were cultivated (37° C., 5% CO2) in Minimum Essential Medium α(MEM α; Thermo Fisher SCIENTIFIC) with addition of 10% fetal bovine serum (FBS; Invitrogen) and GM-CSF (5 ng/mL). […] Luminescence was measured using ONE-Glo (registered trademark) luciferase assay (registered trademark) (Promega).

In data set [3] the test system is NF-κB reporter (Luc)-HEK 293 cells. Description: Evaluation of intracellular immune response, NF-κB reporter luciferase assay (FIG. 43, 45). The settings on record: FIG. 45; HEK 293 NF-kB cells, 50 ng and 100 ng mRNA, 24 hours. The method, then:
NF-κB reporter (Luc)-HEK 293 cells (BPS Bioscience Inc.) were cultivated (37° C., 5% CO2) in a Dulbecco's modified Eagle's medium (DMEM; WAKO) with addition of 10% fetal bovine serum (FBS; Invitrogen), 100 μg/ml of Hygromycin B. The day before transfection, NF-κB reporter (Luc)-HEK 293 cells were seeded in a 48-well plate (7.5×10^4 cells/well). The next day, the medium was removed and replaced with 225 μL/well Opti-MEM (registered trademark) (Thermo Fisher SCIENTIFIC). 0.375 μL Lipofectamine (registered trademark) Messenger MAX (registered trademark) and 12.5 ng mRNA (DiPure) were diluted in 25 μL Opti-MEM (registered trademark) and introduced into cells. After incubation at 37° C. for 5 hours, 50 μL/well 1× Cell Lysis Buffer (Promega) was added to lyse the cells. Luminescence was measured using ONE-Glo (registered trademark) luciferase assay (registered trademark) (Promega). The protein amount was quantified using Pierce (registered trademark) BCA Protein Assay Kit (Thermo Fisher SCIENTIFIC), and the luminescence value was corrected by the number of cells.
NF-κB reporter (Luc)-HEK 293 cells (BPS Bioscience Inc.) were cultivated (37° C., 5% CO2) in a Dulbecco's modified Eagle's medium (DMEM; WAKO) with addition of 10% fetal bovine serum (FBS; Invitrogen), 100 μg/ml of Hygromycin B. The day before transfection, NF-κB reporter (Luc)-HEK 293 cells were seeded in a 48-well plate (1.0×10^5 cells/well). The next day, the medium was removed and replaced with 240 μL/well Opti-MEM (registered trademark) (Thermo Fisher SCIENTIFIC). 0.15 μL Lipofectamine (registered trademark) Messenger MAX (registered trademark) and 100 ng mRNA were diluted in 10 μL Opti-MEM (registered trademark) and introduced into cells. After incubation at 37° C. for 24 hours, 50 μL/well 1× Cell Lysis Buffer (Promega) was added to lyse the cells. Luminescence was measured using ONE-Glo (registered trademark) luciferase assay (registered trademark) (Promega). The protein amount was quantified using Pierce (registered trademark) BCA Protein Assay Kit (Thermo Fisher SCIENTIFIC), and the luminescence value was corrected by the number of cells.

The test system of data set [4] is HeLa cells. Description: Translation activity of Luc2 mRNA transcriptionally synthesized using a cap analog, HeLa cells (FIG. 37). The settings on record: lipofection, after 24 hours, versus Tri_1 (CleanCap Reagent AG structure). The protocol:
as §1, §2
FIG. 37 is a diagram showing the result of evaluation of translation activity in a HeLa cell of RNAs transcriptionally synthesized using a cap analog. […] After 24 hours, the cells were lysed and the luminescence of firefly luciferase was measured. […]
HeLa cells (RIKEN Cell Bank) were cultivated (37° C., 5% CO2) in Dulbecco's modified Eagle's medium (DMEM; WAKO) with addition of 10% fetal bovine serum (FBS; Invitrogen). […] Luminescence was measured using ONE-Glo (registered trademark) luciferase assay (registered trademark) (Promega).

Entries after “also recorded” stand apart in the source; their conditions may differ.

“P1-(N^2-tBu-nitrobenzyloxycarbonyl-N^7-methylguanosin-5′-yl) P3-guanosin-5′-yl triphosphate [Cap Analog_1]”: the “translation activity (amount of expressed NanoLuc luciferase; expression level of mRNA prepared without cap analog being 1)” value in data set [1] (FIG. 30, mRNA 20 ng/well, cultivated 7 hours, before and after photoirradiation/deprotection) was “does not show high translation activity unless it is irradiated with light and deprotected; also recorded: can completely inhibit translation activity in the protected state”.

With `C[n+]1cn([C@@H]2O[C@H](COP(=O)(O)OP(=O)([O-])OP(=O)(O)OC[C@H]3O[C@@H](n4cnc5c(=O)[nH]c(N)nc54)C(O)[C@H]3O)[C@H](O)C2OCOC(c2ccccc2[N+](=O)[O-])C(C)(C)C)c2nc(N)nc(O)c21` (mixture of isomers) [Cap Analog_2, P1-{N^7-Methyl-2′-O-[2,2-dimethyl-(R/S)-1-(2-nitrophenyl)propyloxy]methylguanosin-5′-yl} P3-guanosin-5′-yl triphosphate], in data set [1] (FIG. 31, mRNA 5 ng/well, cultivated 23 hours), the “translation activity compared with mRNA prepared using ARCA cap analog” value is “higher translation activity compared to the RNA capped with ARCA”.

As for `COC1[C@@H](OP(=O)([O-])OC[C@H]2O[C@@H](n3cnc4c(=O)[nH]c(N)nc43)C(O)[C@H]2O)[C@@H](COP(=O)([O-])OP(=O)([O-])OP(=O)([O-])OC[C@H]2O[C@@H](n3c[n+](C)c4c([O-])nc(N)nc43)C(OCOC(c3ccccc3[N+](=O)[O-])C(C)(C)C)[C@H]2O)O[C@H]1n1cnc2c(N)ncnc21.[Na+].[Na+].[Na+].[Na+]` (some centres unmarked) [TriPure_1, Nb-^m7GpppA(2′OCH3)pG], the “translation activity relative to Tri_1 (firefly luciferase luminescence)” value is reported as “about 24 times” in data set [2] and “about 2 times” in data set [4]. Further, the “intracellular immune response (NF-κB reporter luminescence)” value in data set [3] is listed as “lower immune response than conventional mRNAs synthesized using ARCA”.
